The values that follow come from US11617850B2, “Delivery systems and methods for electric plasma synthesis of nitric oxide” (The General Hospital Corporation, priority 2016, dated 2023).

In data set [1] the test system is awake sheep with acute pulmonary hypertension, due to U46619 infusion. Briefly: Inhaled electrically generated NO in awake sheep with acute pulmonary hypertension due to U46619 infusion. It counts as in vivo. An excerpt: Animal studies were approved by the Institutional Animal Care and Use Committee of Massachusetts General Hospital (Boston, Mass.). The NO generator 102 of the NO generation system 100 was coupled to a tracheostomy tube in a spontaneously breathing awake 35 kg sheep.
To induce pulmonary hypertension, a potent pulmonary vasoconstrictor U46619 (Cayman Chemical, Ann Arbor, Mich.), the analog of the endoperoxide prostaglandin H2, was infused intravenously to increase pulmonary arterial pressure (PAP) to 30 mmHg. The pulmonary arterial pressure and PAP was continuously monitored using a Gould 6600 amplifier system (Gould Electronics, Inc., Eastlake, Ohio).
In turn, the electric plasma discharge of the electrodes supplied NO gas to the spontaneously breathing awake sheep during those 0.8 seconds.
Turning to FIGS. 11 and 12, the above-described operation of the NO system 200 (i.e., triggering the NO generator 102 for approximately 0.8 second during early inspiration, for example, 20 milliseconds after commencement of inspiration) was implemented during a NO exposure time 700. Prior to and following the NO exposure time 700, a baseline was generated. The NO generator 102 was configured to output approximately 20 ppm of NO for three different runs (FIG. 11) and was configured to output 5 ppm of NO for another run (FIG. 12).
In addition to PAP, the arterial oxygen saturation was also measured as a function of time in the awake sheep. […] Lastly, the relative arterial oxygen saturation was calculated as a function of time for all four periods of NO inhalation.

The test system of data set [2] is mice (C57BL6 male WT). Briefly: Mice breathing air or electrically generated 50 ppm NO in air for 28 days. It is filed as in vivo. The conditions noted are these: 50 ppm NO in air. An excerpt: A second chamber 802 was supplied with 50 ppm of NO gas in air, generated by a spark plug generator using platinum-iridium electrodes and subsequently scavenged using 75 g Ca(OH). A plurality of mice (C57BL6 male WT) breathed the NO laden air for the same 28 day period. During the 28 day test, humidity, CO2, O2, NO, and NO2 were monitored intermittently.
Throughout the 28 day test, the mice were weighed in weekly intervals to track a change in the body weight of the mice throughout the 28 day test. […] Once the 28 day test was complete, lung specimens from the mice were analyzed using a high resolution magnetic sector field inductively coupled mass spectrometer (Thermo Fisher, Bremen, Germany).

Consider `[N]=O` [NO, nitric oxide], for which the results for the “arterial oxygen saturation (SaO2) during the NO exposure time” value in data set [1] (5 ppm NO inhaled) and in data set [1] (20 ppm NO inhaled) were “generally constant” and “increases”, respectively. The “effect on pulmonary artery pressure (PAP) during the NO exposure time” value in data set [1] (5 ppm NO inhaled, one run) was “does not show a measurable effect”. Further, the “improvement of relative arterial oxygen saturation during the NO exposure time” value in data set [1] (20 ppm NO inhaled, three trials) is “approximately 10%”. For the same compound, the “lung histology (H&E staining of larynx, trachea, main bronchus, lung tissues)” value in data set [2] is “no evidence of lung inflammation or pathology”. For the same compound, in data set [2] (platinum-iridium electrodes, Ca(OH) scavenger), the “iridium and platinum in lung specimens versus control mice (ICP mass spectrometry)” value is recorded as “no detectable difference”. For the same compound, the “body weight gain versus mice breathing air” value in data set [2] (weighed weekly) is recorded as “did not differ”.
